# Experimental data as given in patent publication US5661182A, “Method for lowering oxygen affinity of hemoglobin in redcell suspensions, in whole blood and in vivo” (Virginia Commonwealth University, priority 1995, dated 1997).
# “Also recorded” adds a separate entry of the source.
# What was measured:
# [1] = test system: HbA/Yakima red blood cells; experiment: Calculated oxygen delivery index of HbA/Yakima red blood cells (ΔY); assay type: cell-based, human; conditions: for ΔY (oxygen delivery index): HbA/Yakima RBC, 0.5 mM
# Experimental: Human blood was collected on heparin from healthy nonsmoking donors. Bovine blood was provided by Pr Delpech, INA (Paris-Grignon). Red blood cells were washed three times in isotonic buffer, kept at 4° C., and used within 24 h after sampling. Hemoglobin Yakima, a high-oxygen-affinity variant [α2 β2 99 (G1) Asp>>His], was obtained from a known heterozygous carrier. Fresh Yakima red cells were processed in the same way as described above.
# In Vivo Estimates for Percent of Oxygen Delivery. Table 4 presents the calculated oxygen delivery index for red blood cell suspensions in the presence or absence of 0.5 mM L3,5 or RSR-4. The experimental conditions for the experiments of Table 4 were the same as those used for Table 1. The oxygen delivery index was calculated from the experimental oxygen binding curves as the difference in hemoglobin oxygen saturation (percent) corresponding to the pO2 in the arterial blood (90 mmHg) and that in the mixed venous blood (40 mMHg). HbA/Yakima red blood cells were obtained from a heterozygous carrier of the high-affinity Hb variant.
# [2] = molecular target: stored human RBCs (Homo sapiens, UniProt P68871+P69905); experiment: Outdated blood studies: oxygen dissociation curves of stored red blood cells; assay type: cell-based; conditions: for p50 / ΔY [Y(90%)-Y(40%)]: 40-day-old stored human RBCs
# stored human RBCs, sequence (P69905 whole entry): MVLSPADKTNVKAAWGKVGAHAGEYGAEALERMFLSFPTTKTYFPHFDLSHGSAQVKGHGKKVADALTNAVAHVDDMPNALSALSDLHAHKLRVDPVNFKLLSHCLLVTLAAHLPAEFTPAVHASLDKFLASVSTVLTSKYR
# stored human RBCs, sequence (P68871 whole entry): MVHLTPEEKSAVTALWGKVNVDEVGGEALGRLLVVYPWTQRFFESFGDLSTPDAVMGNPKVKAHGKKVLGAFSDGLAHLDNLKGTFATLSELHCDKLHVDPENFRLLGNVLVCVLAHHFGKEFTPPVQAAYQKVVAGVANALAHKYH
# Experimental: Outdated Blood Studies. For the outdated blood studies, 40-day-old packed red cells (80% hematocrit) were obtained from the blood bank at the Medical College of Virginia, Richmond, Va. The cells had been stored in Adsol formulation at 1°-4° C., pH 6.84. Fresh red cells obtained from volunteers were used for the control studies in Table III. The fresh red blood cells were centrifuged and washed with saline, pH 6.8. The oxygen dissociation curves were recorded on an Aminco Hem-O-Scan (Travenol Laboratories).
# Outdated Blood Studies. The capability of RSR-13 to restore the oxygen affinity of stored blood was investigated. The procedure involved measurement of the oxygen equilibrium curves on red cell suspensions, which were stored in Adsol formulations at 4° C., in either the absence (controls) or presence of RSR-13. Table 3 presents the p50 (mmHg) and ΔY (%) [Y(90%)-Y(40%)] for outdated red blood cell suspensions (forty days) in the presence or absence of RSR-13.
pH of RBC solution versus untreated samples ([2]; 4 mM),p50 ([2]; 1 mM) [mm Hg],ΔY [Y(90%)-Y(40%)] ([2]; 1 mM) [%],p50 ([2]; 2 mM) [mm Hg],ΔY [Y(90%)-Y(40%)] ([2]; 2 mM) [%],SMILES,ΔY (oxygen delivery index) ([1]; 50 μM HSA) [%],ΔY (oxygen delivery index) ([1]; no HSA) [%],oxygen delivery restoration ([1]; red cells containing 47% Hb Yakima),"restoration / preservation of oxygen transport capabilities ([2]; 40-day-old RBC, 1 mM, or added prior to measurements or during storage)","hemolysis ([2]; stored human red cells, end of experiments)"
–,–,–,–,–,"CC(C)(Oc1ccc(CC(=O)Nc2cc(Cl)cc(Cl)c2)cc1)C(=O)O [RSR-4, 2-[4-[[(3,5-dichloroanilino)carbonyl]methyl]phenoxy]-2-methylpropionic acid]",19,22,able to restore an almost normal oxygen delivery; also recorded: almost normal oxygen delivery index,–,–
higher than that of untreated samples,39,37,45,40,Cc1cc(C)cc(NC(=O)Cc2ccc(OC(C)(C)C(=O)O)cc2)c1 [RSR-13],–,–,–,"able to restore, to near normal the oxygen transport capabilities (p50 and ΔY) of 40-day-old red blood cells; also recorded: preserved the oxygen delivery capabilities of red cell hemoglobin",no indication of hemolysis
